# Measurements: patent publication US20050256177A1, “Phenyl derivatives for the treatment of abnormal cell growth” (Pfizer Inc, priority 2004, published 2005)
# What was measured:
# [1] = Metabolite profiling after single oral dose of [14C]-labelled parent drug in healthy male subjects; assay type: in vivo, human; settings: for presence in HPLC-radiochromatogram of human fecal metabolites: human feces; for presence in HPLC-radiochromatogram of human fecal metabolites / presence in HPLC-radiochromatogram of circulating metabolites / presence in HPLC-radiochromatogram of human urinary metabolites: single 100 mg oral dose of labelled compound; for presence in HPLC-radiochromatogram of circulating metabolites: human plasma; for matrices in which the metabolite was detected (humans) / presence in HPLC-radiochromatogram of human urinary metabolites: human urine; for matrices in which the metabolite was detected (humans): feces, plasma
# Method: Four normal healthy male subjects between the ages of 26 and 55 years participated in the study. The subjects entered the Clinical Research Facility 12 hours before dosing, and remained there for up to 384 hours after dosing under continuous medical observation. All subjects had fasted at least 8 hours and were given a single 100 mg oral dose of the labeled compound (˜93 μCi/subject). The dose was administered in an open fashion in the morning. A standard meal was provided 4 hours later. The dosing formulation was prepared by dissolving the radiolabeled material in citrate buffered vehicle that was prepared by adding 100 ml of water to a 4 oz. amber bottle containing a dry powder blend of citric acid and sodium citrate. Total volume of dosage given was 240 ml.
# After dosing, urine samples were collected for up to 16 days between the following time points: 0-12, 12-24, 24-48, 48-72, 72-96, 96-120, 120-144, 144-168, 168-192, 192-216, 216-240, 240-264, 264-288, 288-312, 312-336, 336-360 and 360-384 hours post-dose (i.e., first sample collected between 0-12 hours, second sample collected between 12-24 hours, and so on). The total volume of the urine samples was recorded after each collection. Feces were collected as passed, from time of dosing until 384 hours after dosing.
# Blood sufficient to provided a minimum of 7 ml of plasma was collected, in heparinized tubes, from each subject at 0 (just before dosing), 1, 2, 4, 6, 8, 10, 12, 16, 24, 48, 72, 96, 120, 144 and 168 hours after the dose. Within 1 hour after collection, the blood samples were centrifuged in a refrigerated centrifuge and plasma was separated from whole blood. Samples collected over the first 168 hours post-dose were divided into two aliquots (3 ml and 4 ml). The 3 ml aliquots were used for the quantitation of unchanged 3-(4-bromo-2,6-difluoro-benzyloxy)-5-[3-(4-pyrrolidin-1-yl-butyl)-ureido]-isothiazole-4-carboxylic acid amide The other 4 ml aliquots were used for the analysis of total radioactivity. For metabolite identification, blood sufficient to yield 20 ml of plasma was collected at 4, 6, 8, 12, 16 and 24 hours after the dose. All samples were labeled, immediately frozen, and stored at −20° C. until analysis.
# Radioactivity in urine, feces, and plasma was measured by liquid scintillation counting. All samples were counted in a Wallac 1409 liquid scintillation counter with quench correction determined by monitoring the Compton edge of the external gamma source. Radioactivity less than twice the background value of the pre-dose matrix was considered to be below the limit of quantification.
# Urine samples obtained between the following time points were pooled for each subject: 0-12, 12-24, 24-48, 48-72 hours after the dose (i.e., first sample collected between 0-12 hours, second sample collected between 12-24 hours, and so on). The pooled samples (˜100 ml) were lyophilized overnight. The residues were extracted with methanol twice (10 and 5 ml). The supernatants were combined and 0.2 ml aliquots were counted in a liquid scintillation counter to determine the extraction efficiency. The supernatants were evaporated to dryness in a Turbo Vap LV evaporator. The residues were reconstituted with 1 ml of MeOH. Aliquots (50 μl) were injected onto the HPLC column without further purification.
# Fecal homogenates were pooled (up to 0-264 hours) for each subject. The pooled samples (˜10 g) were suspended in 25 ml of acetonitrile. The suspensions were sonicated for 10 min, then stirred on a magnetic stirrer for 1 hour and centrifuged. Supernatants were separated and the residues further extracted with 25 ml of acetonitrile. The two supernatants were combined and 1 ml aliquots were counted in a scintillation counter to determine the extraction efficiency. The organic solvents were evaporated to dryness in a Turbo Vap LV evaporator and the residues were reconstituted in 1 ml of MeOH:water (50:50). Aliquots (100 μl) of concentrated fecal extracts were injected onto the HPLC column. […]
# [2] = Metabolite detection in beagle dogs, methods similar to those used for human samples; assay type: in vivo; settings: dog urine, feces, bile, plasma
# [3] = Metabolite detection in Sprague-Dawley rats, methods similar to those used for human samples; assay type: in vivo; settings: rat urine, feces, bile, plasma
presence in HPLC-radiochromatogram of human fecal metabolites [1],presence in HPLC-radiochromatogram of circulating metabolites [1],matrices in which the metabolite was detected (humans) [1],presence in HPLC-radiochromatogram of human urinary metabolites [1],SMILES,matrices in which the metabolite was detected (beagle dogs) [2],matrices in which the metabolite was detected (rats) [3]
presence,presence,detected in feces and plasma,–,"NC(=O)c1c(OCc2c(F)cc(Br)cc2F)nsc1NC(=O)NCCCC(=O)O [Metabolite M9, 4-{3-[3-(4-bromo-2,6-difluorobenzyloxy)-4-carbamoyl-isothiazol-5-yl]-ureido}-butyric acid]",found in dog feces,–
–,presence,detected in urine and plasma,presence,"O=C(O)c1c(F)cc(Br)cc1F [Metabolite M4, 4-bromo-2,6-difluorobenzoic acid]",–,found in rat urine
–,–,detected in urine of humans,presence,"CC(=O)NC(CSCc1c(F)cc(Br)cc1F)C(=O)O (stereo not shown) [Metabolite M5, 2-Acetylamino-3-(4-bromo-2,6-difluoro-benzylsulfanyl)-propionic acid]",detected in urine of humans and beagle dogs,–

# Further lines, the compound ahead of its results:
SMILES,presence in HPLC-radiochromatogram of human fecal metabolites [1],presence in HPLC-radiochromatogram of circulating metabolites [1],matrices in which the metabolite was detected (humans) [1],presence in HPLC-radiochromatogram of human urinary metabolites [1],matrices in which the metabolite was detected (beagle dogs) [2],matrices in which the metabolite was detected (rats) [3]
"NC(=O)c1c(OCc2c(F)cc(Br)cc2F)nsc1NC(=O)NCCCCN1CC=CC1=O [Metabolite M8, 3-(4-bromo-2,6-difluoro-benzyloxy)-5-{3-[4-(2-oxo-2,5-dihyro-pyrrol-1-yl)-butyl]-ureido}-isothiazole-4-carboxylic acid amide]",–,–,–,–,"detected in feces, bile and plasma of beagle dogs","detected in feces, bile and plasma of beagle dogs and Sprague-Dawley Rats"
"NC(=O)c1c(OCc2c(F)cc(Br)cc2F)nsc1NC(=O)NCCCC[N+]1([O-])CCCC1 [Metabolite M2, 3-(4-bromo-2,6-difluoro-benzyloxy)-5-[3-(4-pyrrolidin-1-yl-N-oxide-butyl)-ureido]-isothiazole-4-carboxylic acid amide]",–,–,detected in urine of humans,presence,"in urine, feces, bile and plasma of Beagle dogs",–
"NC(=O)c1c(OCc2c(F)cc(Br)cc2F)nsc1NC(=O)NCCCCN1CCCC1 [3-(4-Bromo-2,6-difluoro-benzyloxy)-5-[3-(4-pyrrolidin-1-yl-butyl)-ureido]-isothiazole-4-carboxylic acid amide, reference compound]",presence,presence,–,presence,–,–
"NC(=O)c1c(OCc2c(F)cc(Br)cc2F)nsc1NC(=O)NCCCCNCCCC(=O)O [Metabolite M1, 4-(4-{3-[3-(4-bromo-2,6-difluoro-benzyloxy)-4-carbamoyl-isothiazol-5-yl]-ureido}-butylamino)-butyric acid]",presence,–,detected in urine and feces of humans,presence,–,–
